Measured values from BigSolDB 2.1.

O=C(O)c1cccc(C(=O)O)c1
Details	solubility (mole fraction)
in ethanol, 294.35 K	0.004
in ethanol, 296.95 K	0.0042
in ethanol, 298.15 K	0.0043
in ethanol, 300.55 K	0.0047
in ethanol, 306.15 K	0.0051
in ethanol, 308.85 K	0.0053
in ethanol, 310.85 K	0.0056
in ethanol, 313.65 K	0.0063
in ethanol, 318.35 K	0.0068
in ethanol, 320.45 K	0.0072
in ethanol, 324.15 K	0.0075
in ethanol, 326.75 K	0.0078
in ethanol, 330.85 K	0.0085
in ethanol, 331.75 K	0.0089
in ethanol, 335.05 K	0.0093
in isobutanol, 318.65 K	0.0025
in isobutanol, 323.55 K	0.0033
in isobutanol, 327.85 K	0.004
in isobutanol, 331.05 K	0.0047
in isobutanol, 336.15 K	0.0055
in isobutanol, 340.05 K	0.0061
in isobutanol, 343.05 K	0.0066
in isobutanol, 346.65 K	0.0072
in isobutanol, 348.95 K	0.0079
in isobutanol, 351.05 K	0.0085
in isobutanol, 355.05 K	0.0092
in isobutanol, 356.05 K	0.0098
in isobutanol, 360.75 K	0.0108
in isopropanol, 304.65 K	0.0046
in isopropanol, 308.45 K	0.0052
in isopropanol, 310.95 K	0.0057
in isopropanol, 316.45 K	0.0063
in isopropanol, 319.45 K	0.0068
in isopropanol, 322.15 K	0.0075
in isopropanol, 324.85 K	0.0081
in isopropanol, 326.95 K	0.0086
in isopropanol, 331.35 K	0.0095
in isopropanol, 334.35 K	0.0103
in isopropanol, 337.55 K	0.0111
in isopropanol, 342.25 K	0.012
in isopropanol, 344.25 K	0.0126
in methanol, 288.35 K	0.0029
in methanol, 292.45 K	0.0031
in methanol, 295.65 K	0.0032
in methanol, 298.65 K	0.0035
in methanol, 299.65 K	0.0036
in methanol, 302.15 K	0.004
in methanol, 305.25 K	0.0044
in methanol, 308.45 K	0.0047
in methanol, 311.85 K	0.0049
in methanol, 313.45 K	0.0051
in methanol, 316.65 K	0.0056
in methanol, 319.25 K	0.0056
in methanol, 320.15 K	0.006
in methanol, 323.15 K	0.0064
in methanol, 326.05 K	0.0068
in methanol, 328.15 K	0.0072
in n-butanol, 309.65 K	0.0039
in n-butanol, 314.35 K	0.0044
in n-butanol, 319.95 K	0.0052
in n-butanol, 324.45 K	0.0057
in n-butanol, 328.05 K	0.0062
in n-butanol, 332.15 K	0.007
in n-butanol, 335.25 K	0.0076
in n-butanol, 338.05 K	0.0081
in n-butanol, 340.95 K	0.0091
in n-butanol, 345.45 K	0.0099
in n-butanol, 347.95 K	0.0104
in n-propanol, 303.75 K	0.0033
in n-propanol, 305.65 K	0.0039
in n-propanol, 311.65 K	0.0043
in n-propanol, 315.35 K	0.0049
in n-propanol, 318.85 K	0.0054
in n-propanol, 322.55 K	0.0059
in n-propanol, 326.65 K	0.0064
in n-propanol, 330.45 K	0.007
in n-propanol, 337.95 K	0.0091
in n-propanol, 340.15 K	0.0093
in n-propanol, 341.95 K	0.01
in n-propanol, 345.95 K	0.0113
in n-propanol, 348.15 K	0.0122
in sec-butanol, 302.45 K	0.0025
in sec-butanol, 306.35 K	0.0033
in sec-butanol, 309.25 K	0.004
in sec-butanol, 314.15 K	0.0049
in sec-butanol, 317.65 K	0.0057
in sec-butanol, 322.15 K	0.0071
in sec-butanol, 326.25 K	0.0085
in sec-butanol, 331.35 K	0.0098
in sec-butanol, 339.35 K	0.0117
in sec-butanol, 342.35 K	0.0126
in tert-butanol, 303.65 K	0.0026
in tert-butanol, 307.95 K	0.0038
in tert-butanol, 312.15 K	0.0047
in tert-butanol, 315.35 K	0.0059
in tert-butanol, 318.35 K	0.0073
in tert-butanol, 321.15 K	0.0091
in tert-butanol, 324.55 K	0.0106
in tert-butanol, 328.75 K	0.0125
in tert-butanol, 331.65 K	0.0141
in tert-butanol, 334.95 K	0.016
in tert-butanol, 338.45 K	0.0177
in tert-butanol, 342.65 K	0.0194
in tert-butanol, 345.65 K	0.0203
